The values that follow come from patent publication US20240350430A1, “GROWTH INHIBITOR OF METASTATIC HUMAN PROSTATE CANCER CELLS” (Watanabe Oyster Laboratory Co., Ltd., priority 2021, published 2024).

For one assay, the system named is PC-3 cells. Nature of the assay: Cell death of sub-confluent PC-3 cells (adherent cell counting). The class given is cell-based, human. On the procedure: The PC-3 and DU-145 cells (1×10^5/in 1 ml of a culture fluid per hole using a 24-hole plate) were cultured in a DMEM culture fluid (containing 10% of FBS, 1% of P/S, and 1% of fungizone) under 5% of CO2, at 37° C., for three days, and when the cells reached sub-confluence, the culture fluid was exchanged for the one containing the DHMBA (0.01, 0.1, 1, 10, 100, or 1000 μM), and the cells were cultured for 24 and 48 hours. After the culture, the cells adhering to the bottom surface of the dish were removed and counted. In another experiment, after the culture for three days, when the cells reached sub-confluence, the culture fluid was exchanged for a culture fluid containing the DHMBA (1 or 10 μM) and a caspase-3 inhibitor (10 μM), and the cells were counted after the culture for 48 hours. Further, after the culture for three days, when the cells reached sub-confluence, the culture fluid was exchanged for a culture fluid obtained by adding gemcitabine (0.1, 1, 10, 50 or 100 nM) or CH223191 (1, 10, and 25 μM) to a DMEM culture fluid containing the DHMBA (1 or 10 μM) or not containing the DHMBA, and the cells were counted after the culture for 48 hours.
After the culture of the cells, 0.1 ml of 0.05% trypsin-EDTA solution obtained by dissolving the cells adhering to the bottom surface of the culture dish in PBS (Thermo Fisher Scientific, Waltham, MA, USA) not containing Ca^2+/Mg^2+ was added, incubation was performed at 37° C. for two minutes to release the adhering cells, and 0.9 ml of the DMEM culture fluid containing 10% of FBS and 1% of P/S was added to stop the reaction. The visible cells were counted by the Olympus MTV-3 microscope using a hemocytometer (Sigma-Aldrich).
In the drawing, the PC-3 (FIGS. 5(A) and 5(B)) and DU-145 (FIGS. 5(D) and 5(E)) cells (1×10^5/in 1 ml of a culture fluid per hole using a 24-hole plate) were cultured under 5% of CO2, at 37° C., for three days in a DMEM culture fluid (containing 10% of FBS, 1% of P/S, and 1% of fungizone), and when the cells reached sub-confluence, the culture fluid was exchanged for the one containing the DHMBA (0.01, 0.1, 1, 10, 100, or 1000 μM), and the cells were cultured for 24 and 48 hours. In the drawing, after the culture, the cells adhering to the dish were counted.
In another experiment, after the culture for three days, when the cells reached sub-confluence, for the PC-3 (FIG. 5(C)) or DU-145 (FIG. 5(F)) cells, the culture fluid was exchanged for a culture fluid containing the DHMBA (1 or 10 μM) and a caspase-3 inhibitor (10 μM), and the cells were counted after the culture for 48 hours. Further, after the culture for three days, when the cells reached sub-confluence, the culture fluid was exchanged for a culture fluid obtained by adding gemcitabine (0.1, 1, 10, 50 or 100 nM) or CH223191 (1, 10, and 25 μM) to a DMEM culture fluid containing the DHMBA (1 or 10 μM) or not containing the DHMBA, and the cells were counted after the culture for 48 hours. After the culture, the cells adhered to the dish were removed and counted. Each piece of data is shown with a mean value and a standard deviation of values obtained from eight wells of the different cultured cells. *p<0.001, comparison with the control (gray bar). 1-way ANOVA, Tukey-Kramer post-test.
The PC-3 cells (1×10^5/in 1 ml of a culture fluid per hole using a 24-hole plate) were cultured under 5% of CO2, at 37° C., for three days in a DMEM culture fluid (containing 10% of FBS, 1% of P/S, and 1% of fungizone), and when the cells reached sub-confluence, the culture fluid was exchanged for the one containing the gemcitabine (1, 10, 50, 100, or 250 nM), and the cells were cultured for 48 hours. In the drawing, after the culture, the cells adhering to the dish were counted.
After the culture for three days, when the cells reached sub-confluence, the culture fluid was exchanged for a culture fluid containing the DHMBA (1 or 10 μM) and gemcitabine (1, 10, or 100 nM), and the cells were counted after the culture for 48 hours. […]

In the next assay the test system is DU-145 cells. Nature of the assay: Colony formation of DU-145 cells. The class given is cell-based, human. The note with it: DHMBA 1 or 10 μM, nine days. On the procedure:
The PC-3 and DU-145 cells (1×10^3/in 2 ml of a culture fluid per hole using a six-hole plate) were cultured in a DMEM culture fluid (containing 10% of FBS, 1% of P/S, and 1% of fungizone) containing the DHMBA (1 and 10 μM) under 5% of CO2, at 37° C., for nine days. After the culture, the culture fluid was removed, the cells were washed twice with PBS, 95% of methanol (0.5 ml) was added, and the cells were fixed for 20 minutes. After the fixation, each well of a culture dish was washed four times with PBS (1 ml), and after that 0.5% of crystal violet (0.5 ml) was added, and the product was left for two hours at room temperature for staining. After the stain solution was washed to be removed, drying was performed, and after that colonies containing 50 or more cells were counted by a microscope (Olympus MTV-3, Olympus Corporation, Tokyo, Japan).
FIG. 2(A) is a drawing in which the DU-145 cells (1×10^3 cells/per well of a six-well plate) were cultured under 5% of CO2, at 37° C., for nine days in a DMEM culture fluid (containing 10% of FBS, 1% of P/S, and 1% of fungizone) containing the DHMBA (1 or 10 μM).
FIG. 2(B) is a diagram of counting the number of colonies.

On to `COc1c(O)cc(CO)cc1O` [DHMBA, 3,5-dihydroxy-4-methoxybenzyl alcohol], for which the “cell death inducing effect of DHMBA in the presence of CH223191” value in the assay with PC-3 cells (DHMBA 10 μM with CH223191 1, 10, or 25 μM, 48 hours) is reported as “found not to be expressed”. Also, the cell death result in the assay on PC-3 cells (DHMBA 1, 10, 100, or 1000 μM, 24 and 48 hours) is listed as “significantly increased”. In addition, in the assay with PC-3 cells (DHMBA 1 and 10 μM, 48 hours), the “cell death inducing action of DHMBA in the presence of gemcitabine 1 or 10 nM” value was “did not occur” and the “cell death inducing effect of DHMBA in the coexistence of gemcitabine 100 nM” value is given as “significantly enhanced”. The “increase of cell death in the presence of caspase-3 inhibitor” value with PC-3 cells (DHMBA 1 or 10 μM with caspase-3 inhibitor 10 μM, 48 hours) is on record as “not caused”. For the same molecule, in the assay on DU-145 cells, the colony formation result was “significantly inhibited”.
